The data set is described as follows: Relative thermodynamic stability of crystalline anhydrous Forms I and II (competitive slurry experiments). It counts as physicochemical. The procedure:
Competitive slurry experiments were conducted to determine the relative stability of anhydrous Form I and II.

Structures are written as SMILES.

Regarding `Cn1c(Cn2ccc(C(F)(F)F)c(Oc3cc(Cl)cc(C#N)c3)c2=O)n[nH]c1=O` [anhydrous Form I, 3-chloro-5-({1-[(4-methyl-5-oxo-4,5-dihydro-1H-1,2,4-triazol-3-yl)methyl]-2-oxo-4-(trifluoromethyl)-1,2-dihydropyridin-3-yl}oxy)benzonitrile], the “kinetic preference of form” value (at room temperature) is given as “kinetically favored”. Moreover, the “conversion rate from AHI to AHII” value (in solution, under general processing conditions) is given as “very slow”.
In the case of `Cn1c(Cn2ccc(C(F)(F)F)c(Oc3cc(Cl)cc(C#N)c3)c2=O)n[nH]c1=O` [anhydrous Form II, 3-chloro-5-({1-[(4-methyl-5-oxo-4,5-dihydro-1H-1,2,4-triazol-3-yl)methyl]-2-oxo-4-(trifluoromethyl)-1,2-dihydropyridin-3-yl}oxy)benzonitrile], the thermodynamic stability result (at room temperature) is recorded as “more thermodynamically stable”.

(Values after patent publication US9150539B2, “Crystalline form of a reverse transcriptase inhibitor” (Merck Sharp & Dohme Corp., priority 2012, dated 2015).)
